According to PubChem BioAssay AID1259411 (Chemical Carcinogenesis Research Information System (CCRIS), 2018):
Activity calls are given as the source filed them. How the calls were made is not given here.

Tested on: rodent carcinogenicity bioassays, tumor incidence
Assay: CCRIS carcinogenicity studies
Conditions: Species: RAT; Strain/Sex: STRAIN-CD/MALE; Route: ORAL; Dose: 30; 300 MG/KG IN DIET FOR 2 YR; Tumor Site: Type of Lesion: LIVER: NEOPLASTIC NODULE, CARCINOMA; TESTES: INTERSTITIAL CELL TUMOR
Summary of the method: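 Archive of carcinogenicity, mutagenicity, tumor promotion and tumor inhibition results drawn from journals, NCI reports and other sources, expert-reviewed; covers 1985-2011 and is no longer updated.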

Cc1ccc(C)c(OCCCC(C)(C)C(=O)O)c1
carcinogen call: active; positive
